Patent EP1391197B1, “Process for preparation of compositions with a high content in avarol and their use” (KliniPharm GmbH, priority 2002, dated 2004)

Molecular target: T1, 5-Lipoxygenase (Homo sapiens, UniProt P09917)
T1 construct: Granulozyten freiwilliger Spender; endogenous in cells; host or cells: granulocytes of volunteer donors
T1 sequence (P09917 1-674): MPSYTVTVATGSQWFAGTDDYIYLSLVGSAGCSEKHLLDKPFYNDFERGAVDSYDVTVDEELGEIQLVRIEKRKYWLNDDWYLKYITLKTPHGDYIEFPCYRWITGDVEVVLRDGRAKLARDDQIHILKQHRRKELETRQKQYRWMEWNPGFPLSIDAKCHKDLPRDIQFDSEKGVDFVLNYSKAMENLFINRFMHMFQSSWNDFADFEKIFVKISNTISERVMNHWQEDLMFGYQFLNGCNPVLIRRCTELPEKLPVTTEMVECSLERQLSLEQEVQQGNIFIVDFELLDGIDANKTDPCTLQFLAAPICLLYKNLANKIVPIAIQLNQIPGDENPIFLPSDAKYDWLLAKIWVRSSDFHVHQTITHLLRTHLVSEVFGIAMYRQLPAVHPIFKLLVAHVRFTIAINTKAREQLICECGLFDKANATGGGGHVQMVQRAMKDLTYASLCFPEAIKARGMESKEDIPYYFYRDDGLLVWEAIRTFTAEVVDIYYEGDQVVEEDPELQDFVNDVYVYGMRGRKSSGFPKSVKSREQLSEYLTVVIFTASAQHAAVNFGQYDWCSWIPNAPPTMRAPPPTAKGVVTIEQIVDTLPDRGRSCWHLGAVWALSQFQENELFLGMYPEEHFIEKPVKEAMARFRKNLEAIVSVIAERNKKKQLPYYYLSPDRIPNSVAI
Assay: 5-lipoxygenase test in granulocytes (HPLC of 5-lipoxygenase products)
Assay type: cell-based
Conditions: granulocytes of volunteer donors, arachidonic acid and calcium ionophore, 37°C, 10 min, pH 7,4; read-out: IC50- Wert (Bildung von Biotransformationsprodukten der 5-Lipoxygenase)
Protocol: Granulozyten freiwilliger Spender [5-10 x 10^6 / ml] wurden in gepufferter physiologischer Kochsalzlösung [pH 7,4] mit Arachidonsäure [40µmol] und Calciumionophor [10µmol] und steigenden Konzentrationen [10nMol bis 10µMol] der Prüfsubstanzen, Avarol bzw. einer Avarol - Zusammensetzung gemäß Beispiel 3, bei 37°C 10 Minuten lang inkubiert. Anschließend wurden die Reaktion durch Zugabe von 1ml Methanol beendet, die Proben zentrifugiert und die Konzentration an Biotransformations-Produkten der 5-Lipoxygenase im Überstand per HPLC im UV bei 280 und 235nm analysiert. Avarol und die neue Zusammensetzung mit hohem Avarolgehalt, der Dysidea avara-Nativextrakt, hemmten die Bildung von Biotransformationsprodukten der 5-Lipoxygenase. Die IC50- Werte unterschieden sich aber auffällig deutlich. Während für Avarol ein IC50- Wert von 1,3 µM ermittelt wurde, der sich mit Literaturangaben deckt, hemmte die neue Zusammensetzung die Bildung von Produkten der 5-Lipoxygenase bereits mit einem IC50- Wert von 58 nM und war damit überraschend stärker wirksam als Avarol.

IC50: 1300 nM
SMILES: CC1=CCC[C@H]2[C@](C)(Cc3cc(O)ccc3O)[C@@H](C)CC[C@]12C [Avarol]
